Measured values from patent US8841316B2, “Multicomponent crystalline system of rosuvastatin calcium salt and vanillin” (BASF SE, priority 2011, dated 2014).

Experiment: Water vapor sorption (water content under humidity)
Format: physicochemical

With “bis[(E)-7-[4-(4-fluorophenyl)-6-isopropyl-2-[methyl(methylsulfonyl)amino]pyrimidin-5-yl](3R,5S)-3,5-dihydroxyhept-6-enoic acid] calcium salt [Crystal form A]” the “Water vapor sorption: water content after 2 h at 50% r.h.” value (after 2 h at 50% r.h.) was 6.2% and the “Water vapor sorption: water content after 5 h at 95% r.h.” value (after 5 h at 95% r.h.) was 10.1%.
